Target: T1, human CGT (Homo sapiens, UniProt Q16880)
T1 sequence (Q16880 21-541): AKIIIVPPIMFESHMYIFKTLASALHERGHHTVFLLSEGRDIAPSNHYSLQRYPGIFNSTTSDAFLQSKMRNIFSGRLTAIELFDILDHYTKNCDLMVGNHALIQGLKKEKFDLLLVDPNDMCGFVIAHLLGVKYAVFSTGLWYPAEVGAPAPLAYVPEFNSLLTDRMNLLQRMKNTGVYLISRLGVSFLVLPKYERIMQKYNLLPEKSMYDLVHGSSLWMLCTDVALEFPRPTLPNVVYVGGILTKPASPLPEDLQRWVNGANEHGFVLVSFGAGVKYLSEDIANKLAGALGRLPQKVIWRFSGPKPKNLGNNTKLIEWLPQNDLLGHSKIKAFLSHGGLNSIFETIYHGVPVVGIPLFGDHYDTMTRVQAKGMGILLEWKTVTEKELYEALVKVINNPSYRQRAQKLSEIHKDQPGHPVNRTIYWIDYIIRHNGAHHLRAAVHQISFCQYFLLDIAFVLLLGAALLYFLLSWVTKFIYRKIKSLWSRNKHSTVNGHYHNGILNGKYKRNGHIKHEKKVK
Experiment: CGT Enzyme Assay (Biological Example 2, RapidFire/MS/MS method with 0.01% Tween 80 added)
Assay type: biochemical
Conditions: enzymatic assay, CHO/CGT lysate
How it was run: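 Lysate of CHO cells transfected with full-length human CGT, 0.5% DMSO final, 0.01% Tween 80 added; reactions stopped with methanol:acetonitrile holding internal standard. C6-NBD-dihydro-galactosylceramide and C6-NBD-dihydro-ceramide measured by RapidFire/MS/MS (ESI negative), product peak area normalized to internal standard.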

IC50 | SMILES
< 1 µM | N#Cc1cccc([C@@H]2N(c3ccc(Cl)cc3)C(=O)N(c3ccc(Cl)cc3)C23COC3)c1 [Example 30-2, (S)-3-(5,7-bis(4-chlorophenyl)-6-oxo-2-oxa-5,7-diazaspiro[3.4]octan-8-yl)benzonitrile]
< 1 µM | Cc1ccc(N2C(=O)N(c3ccc(Cl)cc3)[C@@H](c3cccc(OC(F)(F)F)c3)C23COC3)cc1 [Example 49-2]
10 to 30 µM | Cc1ccc(N2C(=O)N(c3ccc(C#N)cc3)C3(COC3)[C@H]2c2cccc(C#N)c2)cc1 [Example 57-1, (R)-3-(5-(4-cyanophenyl)-6-oxo-7-(p-tolyl)-2-oxa-5,7-diazaspiro[3.4]octan-8-yl)benzonitrile]
< 1 µM | N#Cc1ccc(N2C(=O)N(c3ccc(Cl)cc3)[C@H](c3cccc(OC(F)(F)F)c3)C23COC3)cc1 [Example 46-1, (R)-4-(7-(4-chlorophenyl)-6-oxo-8-(3-(trifluoromethoxy)phenyl)-2-oxa-5,7-diazaspiro[3.4]octan-5-yl)benzonitrile]
< 1 µM | O=C1N(c2ccc(Cl)cc2)[C@H](c2cccc(OC(F)(F)F)c2)C2(CCCC2)N1c1ccc(Cl)cc1 [Example 15-2, (R)-1,3-bis(4-chlorophenyl)-4-(3-(trifluoromethoxy)phenyl)-1,3-diazaspiro[4.4]nonan-2-one]
1 to 10 µM | COC[C@@]1(C)[C@@H](c2cccc(OC(F)(F)F)c2)N(c2ccc(Cl)cc2)C(=O)N1c1ccc(Cl)cc1 [Example 37-1, (4R,5R)-1,3-bis(4-chlorophenyl)-4-(methoxymethyl)-4-methyl-5-(3-(trifluoromethoxy)phenyl)imidazolidin-2-one]
< 1 µM | Cc1ccc(N2C(=O)N(c3ccc(Cl)cc3)[C@@H](c3cccc(OC(F)(F)F)c3)C2(C)C)cc1 [Example 56-2, (S)-1-(4-chlorophenyl)-4,4-dimethyl-3-(p-tolyl)-5-(3-(trifluoromethoxy)phenyl)imidazolidin-2-one]
10 to 30 µM | CC1(C)[C@@H](c2cccc(OC(F)(F)F)c2)N(c2ccc(C#N)cc2)C(=O)N1c1ccc(Cl)cc1 [Example 40-1, (R)-4-(3-(4-chlorophenyl)-4,4-dimethyl-2-oxo-5-(3-(trifluoromethoxy)phenyl)imidazolidin-1-yl)benzonitrile]
1 to 10 µM | O=C1N(c2ccc(Cl)cc2)C2CCCC2(c2cccc(OC(F)(F)F)c2)N1c1ccc(Cl)cc1 (stereo not drawn) [Example 12]
1 to 10 µM | Cc1ccc(N2C(=O)N(c3ccc(C)cc3)C3(CCCC3)[C@H]2c2cccc(OC(F)(F)F)c2)cc1 [Example 35-1, (R)-1,3-di-p-tolyl-4-(3-(trifluoromethoxy)phenyl)-1,3-diazaspiro[4.4]nonan-2-one]
< 1 µM | Cc1ccc(N2C(=O)N(c3ccc(C)cc3)C3(CCCC3)[C@@H]2c2cccc(OC(F)(F)F)c2)cc1 [Example 35-2, (S)-1,3-di-p-tolyl-4-(3-(trifluoromethoxy)phenyl)-1,3-diazaspiro[4.4]nonan-2-one]
< 1 µM | N#Cc1ccc(N2C(=O)N(c3ccc(Cl)cc3)C3(COC3)[C@@H]2c2cccc(OC(F)(F)F)c2)cc1 [Example 47-2, (S)-4-(5-(4-chlorophenyl)-6-oxo-8-(3-(trifluoromethoxy)phenyl)-2-oxa-5,7-diazaspiro[3.4]octan-7-yl)benzonitrile]
1 to 10 µM | Cc1ccc(N2C(=O)N(c3ccc(C)cc3)C(C)(C)[C@H]2c2cccc(OC(F)(F)F)c2)cc1 [Example 21-1, (R)-4,4-dimethyl-1,3-di-p-tolyl-5-(3-(trifluoromethoxy)phenyl)imidazolidin-2-one]
1 to 10 µM | CC[C@@]1(C)[C@@H](c2cccc(OC(F)(F)F)c2)N(c2ccc(Cl)cc2)C(=O)N1c1ccc(Cl)cc1 [Example 19-4, (4S,5R)-1,3-bis(4-chlorophenyl)-4-ethyl-4-methyl-5-(3-(trifluoromethoxy)phenyl)imidazolidin-2-one]

Further lines, the compound ahead of its results:

SMILES | IC50
CC[C@]1(C)[C@@H](c2cccc(OC(F)(F)F)c2)N(c2ccc(C#N)cc2)C(=O)N1c1ccc(C#N)cc1 [Example 51-3, 4,4′-((4R,5R)-4-ethyl-4-methyl-2-oxo-5-(3-(trifluoromethoxy)phenyl)imidazolidine-1,3-diyl)dibenzonitrile] | 1 to 10 µM
CC1(C)[C@@H](c2cccc(OC(F)(F)F)c2)N(c2cccc(Cl)c2)C(=O)N1c1cccc(Cl)c1 [Example 28-1, (R)-1,3-bis(3-chlorophenyl)-4,4-dimethyl-5-(3-(trifluoromethoxy)phenyl)imidazolidin-2-one] | 10 to 30 µM
CC1(C)C(c2cccc(Cl)c2)N(c2ccc(Cl)cc2)C(=O)N1c1ccc(Cl)cc1 (stereo not drawn) [Example 8] | < 1 µM
CC1(C)[C@@H](c2cccc(OC(F)(F)F)c2)N(c2ccc(C(F)(F)F)cc2)C(=O)N1c1ccc(C(F)(F)F)cc1 [Example 20-1, (R)-4,4-dimethyl-5-(3-(trifluoromethoxy)phenyl)-1,3-bis(4-(trifluoromethyl)phenyl)imidazolidin-2-one] | < 1 µM
N#Cc1cccc([C@@]23CCCC[C@@H]2N(c2ccc(Cl)cc2)C(=O)N3c2ccc(Cl)cc2)c1 [Example 14-2, 3-((3aS,7aS)-1,3-bis(4-chlorophenyl)-2-oxooctahydro-3aH-benzo[d]imidazol-3a-yl)benzonitrile] | 10 to 30 µM
Cc1ccc(N2C(=O)N(c3ccc(C#N)cc3)C(C)(C)[C@H]2c2cccc(C#N)c2)cc1 [Example 54-1, (R)-3-(1-(4-cyanophenyl)-5,5-dimethyl-2-oxo-3-(p-tolyl)imidazolidin-4-yl)benzonitrile] | 10 to 30 µM
O=C1N(c2ccc(Br)cc2)C2CCCCC2N1c1ccc(Br)cc1 (stereo not drawn) [Example 1] | 30 to 100 µM
O=C1N(c2ccc(Cl)cc2)[C@H]2CCC[C@@]2(c2cccc(OC(F)(F)F)c2)N1c1ccc(Cl)cc1 [Example 12-1, (3aS,6aS)-1,3-bis(4-chlorophenyl)-3a-(3-(trifluoromethoxy)phenyl)hexahydrocyclopenta[d]imidazol-2(1H)-one] | 1 to 10 µM
CC1(C)[C@@H](c2cccc(C#N)c2)N(c2ccc(C(F)(F)F)cc2)C(=O)N1c1ccc(C(F)(F)F)cc1 [Example 24-1, (R)-3-(5,5-dimethyl-2-oxo-1,3-bis(4-(trifluoromethyl)phenyl)imidazolidin-4-yl)benzonitrile] | < 1 µM
C[C@]1(C(F)(F)F)[C@@H](c2cccc(OC(F)(F)F)c2)N(c2ccc(C#N)cc2)C(=O)N1c1ccc(C#N)cc1 [Example 39-2, 4,4′-((4R,5R)-4-methyl-2-oxo-5-(3-(trifluoromethoxy)phenyl)-4-(trifluoromethyl)imidazolidine-1,3-diyl)dibenzonitrile] | 10 to 30 µM
C[C@@]1(C(F)(F)F)[C@H](c2cccc(OC(F)(F)F)c2)N(c2ccc(Br)cc2)C(=O)N1c1ccc(C#N)cc1 [Example 44-1, 4-((4S,5S)-3-(4-bromophenyl)-5-methyl-2-oxo-4-(3-(trifluoromethoxy)phenyl)-5-(trifluoromethyl)imidazolidin-1-yl)benzonitrile] | 1 to 10 µM
CCC[C@@]1(C)[C@@H](c2cccc(OC(F)(F)F)c2)N(c2ccc(C#N)cc2)C(=O)N1c1ccc(C#N)cc1 [Example 52-6, 4,4′-((4S,5R)-4-methyl-2-oxo-4-propyl-5-(3-(trifluoromethoxy)phenyl)imidazolidine-1,3-diyl)dibenzonitrile] | 10 to 30 µM
Cc1ccc(N2C(=O)N(c3ccc(C#N)cc3)[C@@H](c3cccc(C#N)c3)C2(C)C)cc1 [Example 48-2, (S)-3-(3-(4-cyanophenyl)-5,5-dimethyl-2-oxo-1-(p-tolyl)imidazolidin-4-yl)benzonitrile] | < 1 µM
